Patent US10654917B2, “Antibody molecules and peptide delivery systems for use in alzheimer's disease and related disorders” (TECHNOPHAGE, INVESTIGAÇĀO E DESENVOLVIMENTO EM …, priority 2015, dated 2020)
Like-named read-outs stand apart in the source and are kept apart here. Residues, ends and D or L forms follow the SMILES beside them. *: point of attachment. X1 = Cc1nn(CCN(CCN)CCCC(=O)*)c(C)c1CC(=O)O

Assays:
[1] = Partition coefficient (log Po/w) of radiopeptides; format: physicochemical
Source text: Table 7 lists each peptide's name, isoelectric point (PI), charge (number of positive residues), calculated mass (in Da), and ion found; as well as the name, calculated mass, and found ion for the corresponding conjugate; and also retention times in HPLC and the partition coefficient (log Po/w). These values allowed the determination of the hydrophilic nature of peptides, where pepH1 and pepH4 were identified as the most hydrophilic peptides.

[2] = Biodistribution of technetium-labelled peptides; format: in vivo, CD1 mice; conditions: iv, total radioactivity
Method in brief: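 CD1 mice received technetium-labelled peptide (8.5×10^−5 M final labelling concentration, in PBS) by tail-vein iv injection; in a repeat study dose was raised one hundred fold. Organs were dissected, washed, weighed and counted at 5 and 60 min, or 2 and 60 min in the repeat, as % injected activity or per gram tissue.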

Question: Which “log Po/w of radiopeptides” value [1] does the source give for `CC[C@H](C)[C@H](NC(=O)CNC(=O)[C@H](C)NC(=O)CCCN(CCN)CCn1nc(C)c(CC(=O)O)c1C)C(=O)N[C@@H](CC(C)C)C(=O)N[C@@H](CCCCN)C(=O)N[C@@H](CCCNC(=N)N)C(=O)N[C@@H](Cc1c[nH]c2ccccc12)C(=O)O` [^99mTc(CO)3-Pz^1-pepH3, metal not drawn] (X1-AGILKRW-OH; C-terminus assumed) here?
Answer: 0.11 ± 0.06

Question: And the tissue uptake at 2 min ([2]; CD1, blood, 140 ug/mouse, 140 μg/mouse, read-out: injected activity in Blood)?
Answer: 8.6 ± 0.9 %ID/g

Question: And the tissue uptake at 1 h ([2]; CD1, blood, 140 ug/mouse, 140 μg/mouse, 1 hour, read-out: injected activity in Blood)?
Answer: 0.43 ± 0.04 %ID/g

Question: And the tissue uptake at 2 min ([2]; CD1, bone, 140 ug/mouse, 140 μg/mouse, read-out: injected activity in Bone)?
Answer: 1.89 ± 0.04 %ID/g

Question: What about the tissue uptake at 1 h ([2]; CD1, bone, 140 ug/mouse, 140 μg/mouse, 1 hour, read-out: injected activity in Bone) of the same compound?
Answer: 0.19 ± 0.01 %ID/g

Question: What about the tissue uptake at 2 min ([2]; CD1, brain, 140 ug/mouse, 140 μg/mouse, read-out: injected activity in Brain) of the same compound?
Answer: 0.31 ± 0.07 %ID/g

Question: What about the tissue uptake at 1 h ([2]; CD1, brain, 140 ug/mouse, 140 μg/mouse, 1 hour, read-out: injected activity in Brain) of the same compound?
Answer: 0.03 ± 0.01 %ID/g

Question: What about the tissue uptake at 2 min ([2]; CD1, heart, 140 ug/mouse, 140 μg/mouse, read-out: injected activity in Heart) of the same compound?
Answer: 2.2 ± 0.3 %ID/g

Question: What about the tissue uptake at 1 h ([2]; CD1, heart, 140 ug/mouse, 140 μg/mouse, 1 hour, read-out: injected activity in Heart) of the same compound?
Answer: 0.14 ± 0.01 %ID/g

Question: And the dose excreted at 1 h ([2]; CD1, in vivo, 140 ug/mouse, 140 μg/mouse, 1 hour, read-out: Excretion)?
Answer: 36 ± 11.2%

Question: And the tissue uptake at 2 min ([2]; CD1, intestine, 140 ug/mouse, 140 μg/mouse, read-out: injected activity in Intestine)?
Answer: 1.4 ± 0.2 %ID/g

Question: And the tissue uptake at 1 h ([2]; CD1, intestine, 140 ug/mouse, 140 μg/mouse, 1 hour, read-out: injected activity in Intestine)?
Answer: 23 ± 7.9 %ID/g

Question: What about the tissue uptake at 2 min ([2]; CD1, kidney, 140 ug/mouse, 140 μg/mouse, read-out: injected activity in Kidney) of the same compound?
Answer: 23.1 ± 3.4 %ID/g

Question: What about the tissue uptake at 1 h ([2]; CD1, kidney, 140 ug/mouse, 140 μg/mouse, 1 hour, read-out: injected activity in Kidney) of the same compound?
Answer: 3.5 ± 0.7 %ID/g

Question: What about the tissue uptake at 2 min ([2]; CD1, liver, 140 ug/mouse, 140 μg/mouse, read-out: injected activity in Liver) of the same compound?
Answer: 18.8 ± 6.1 %ID/g

Question: And the tissue uptake at 1 h ([2]; CD1, liver, 140 ug/mouse, 140 μg/mouse, 1 hour, read-out: injected activity in Liver)?
Answer: 2.3 ± 0.2 %ID/g

Question: What about the tissue uptake at 2 min ([2]; CD1, lung, 140 ug/mouse, 140 μg/mouse, read-out: injected activity in Lung) of the same compound?
Answer: 4.48 ± 0.01 %ID/g

Question: What about the tissue uptake at 1 h ([2]; CD1, lung, 140 ug/mouse, 140 μg/mouse, 1 hour, read-out: injected activity in Lung) of the same compound?
Answer: 0.31 ± 0.03 %ID/g

Question: What about the tissue uptake at 2 min ([2]; CD1, muscle, 140 ug/mouse, 140 μg/mouse, read-out: injected activity in Muscle) of the same compound?
Answer: 1.4 ± 0.2 %ID/g

Question: What about the tissue uptake at 1 h ([2]; CD1, muscle, 140 ug/mouse, 140 μg/mouse, 1 hour, read-out: injected activity in Muscle) of the same compound?
Answer: 0.2 ± 0.1 %ID/g

Question: And the tissue uptake at 2 min ([2]; CD1, spleen, 140 ug/mouse, 140 μg/mouse, read-out: injected activity in Spleen)?
Answer: 1.6 ± 0.4 %ID/g

Question: What about the tissue uptake at 1 h ([2]; CD1, spleen, 140 ug/mouse, 140 μg/mouse, 1 hour, read-out: injected activity in Spleen) of the same compound?
Answer: 0.81 ± 0.01 %ID/g

Question: What about the tissue uptake at 2 min ([2]; CD1, stomach, 140 ug/mouse, 140 μg/mouse, read-out: injected activity in Stomach) of the same compound?
Answer: 1.1 ± 0.2 %ID/g

Question: And the tissue uptake at 1 h ([2]; CD1, stomach, 140 ug/mouse, 140 μg/mouse, 1 hour, read-out: injected activity in Stomach)?
Answer: 5.2 ± 0.7 %ID/g

Question: What about the tissue uptake at 5 min ([2]; mouse, blood, 10 ug, CD1 mice, 5 min, 10 μg, read-out: injected activity in Blood) of the same compound?
Answer: 4.7 ± 0.6 %ID/g

Question: What about the tissue uptake at 1 h ([2]; mouse, blood, 10 ug, CD1 mice, 1 hour, 10 μg, read-out: injected activity in Blood) of the same compound?
Answer: 1.2 ± 0.4 %ID/g

Question: What about the tissue uptake at 5 min ([2]; mouse, bone, 10 ug, CD1 mice, 5 min, 10 μg, read-out: injected activity in Bone) of the same compound?
Answer: 1.2 ± 0.1 %ID/g

Question: What about the tissue uptake at 1 h ([2]; mouse, bone, 10 ug, CD1 mice, 1 hour, 10 μg, read-out: injected activity in Bone) of the same compound?
Answer: 0.26 ± 0.05 %ID/g

Question: And the tissue uptake at 5 min ([2]; mouse, brain, 10 ug, CD1 mice, 5 min, 10 μg, read-out: injected activity in Brain)?
Answer: 0.15 ± 0.02 %ID/g

Question: What about the tissue uptake at 1 h ([2]; mouse, brain, 10 ug, CD1 mice, 1 hour, 10 μg, read-out: injected activity in Brain) of the same compound?
Answer: 0.04 ± 0.01 %ID/g

Question: What about the tissue uptake at 5 min ([2]; mouse, heart, 10 ug, CD1 mice, 5 min, 10 μg, read-out: injected activity in Heart) of the same compound?
Answer: 1.5 ± 0.5 %ID/g

Question: And the tissue uptake at 1 h ([2]; mouse, heart, 10 ug, CD1 mice, 1 hour, 10 μg, read-out: injected activity in Heart)?
Answer: 0.35 ± 0.01 %ID/g

Question: What about the percent of injected dose excreted at 5 min ([2]; mouse, in vivo, 10 ug, CD1 mice, 5 min, 10 μg, read-out: Excretion) of the same compound?
Answer: 19.6 ± 0.3 %ID

Question: And the percent of injected dose excreted at 1 h ([2]; mouse, in vivo, 10 ug, CD1 mice, 1 hour, 10 μg, read-out: Excretion)?
Answer: 10.5 ± 8.6 %ID

Question: And the tissue uptake at 5 min ([2]; mouse, intestine, 10 ug, CD1 mice, 5 min, 10 μg, read-out: injected activity in Intestine)?
Answer: 3 ± 0.3 %ID/g

Question: And the tissue uptake at 1 h ([2]; mouse, intestine, 10 ug, CD1 mice, 1 hour, 10 μg, read-out: injected activity in Intestine)?
Answer: 7.4 ± 0.4 %ID/g

Question: What about the tissue uptake at 5 min ([2]; mouse, kidney, 10 ug, CD1 mice, 5 min, 10 μg, read-out: injected activity in Kidney) of the same compound?
Answer: 11.9 ± 3.8 %ID/g

Question: And the tissue uptake at 1 h ([2]; mouse, kidney, 10 ug, CD1 mice, 1 hour, 10 μg, read-out: injected activity in Kidney)?
Answer: 0.4 ± 2 %ID/g

Question: What about the tissue uptake at 5 min ([2]; mouse, liver, 10 ug, CD1 mice, 5 min, 10 μg, read-out: injected activity in Liver) of the same compound?
Answer: 7.6 ± 0.1 %ID/g

Question: What about the tissue uptake at 1 h ([2]; mouse, liver, 10 ug, CD1 mice, 1 hour, 10 μg, read-out: injected activity in Liver) of the same compound?
Answer: 2.3 ± 0.2 %ID/g

Question: And the tissue uptake at 5 min ([2]; mouse, lung, 10 ug, CD1 mice, 5 min, 10 μg, read-out: injected activity in Lung)?
Answer: 3.7 ± 0.2 %ID/g

Question: What about the tissue uptake at 1 h ([2]; mouse, lung, 10 ug, CD1 mice, 1 hour, 10 μg, read-out: injected activity in Lung) of the same compound?
Answer: 1 ± 0.2 %ID/g

Question: What about the tissue uptake at 5 min ([2]; mouse, muscle, 10 ug, CD1 mice, 5 min, 10 μg, read-out: injected activity in Muscle) of the same compound?
Answer: 1 ± 0.2 %ID/g

Question: And the tissue uptake at 1 h ([2]; mouse, muscle, 10 ug, CD1 mice, 1 hour, 10 μg, read-out: injected activity in Muscle)?
Answer: 0.3 ± 0.1 %ID/g

Question: What about the tissue uptake at 5 min ([2]; mouse, pancreas, 10 ug, CD1 mice, 5 min, 10 μg, read-out: injected activity in Pancreas) of the same compound?
Answer: 1.1 ± 0.1 %ID/g

Question: What about the tissue uptake at 1 h ([2]; mouse, pancreas, 10 ug, CD1 mice, 1 hour, 10 μg, read-out: injected activity in Pancreas) of the same compound?
Answer: 0.5 ± 0.2 %ID/g

Question: What about the tissue uptake at 5 min ([2]; mouse, spleen, 10 ug, CD1 mice, 5 min, 10 μg, read-out: injected activity in Spleen) of the same compound?
Answer: 1.5 ± 0.2 %ID/g

Question: What about the tissue uptake at 1 h ([2]; mouse, spleen, 10 ug, CD1 mice, 1 hour, 10 μg, read-out: injected activity in Spleen) of the same compound?
Answer: 0.81 ± 0.01 %ID/g

Question: What about the tissue uptake at 5 min ([2]; mouse, stomach, 10 ug, CD1 mice, 5 min, 10 μg, read-out: injected activity in Stomach) of the same compound?
Answer: 0.17 ± 0.02 %ID/g

Question: What about the tissue uptake at 1 h ([2]; mouse, stomach, 10 ug, CD1 mice, 1 hour, 10 μg, read-out: injected activity in Stomach) of the same compound?
Answer: 0.4 ± 0.2 %ID/g
